# Like-named read-outs stand apart in the source and are kept apart here.
# How the values were obtained:
# PC-3MLN4 cells = experiment: Experimental bone metastasis model, PC-3MLN4 cells expressing luciferase, intraosseous; assay type: in vivo, immunocompromised mice; settings: 100 mg/kg for two weeks
# Method: Using the metastatic prostate cancer PC-3MLN4 cells that expressed luciferase, the anti-tumor effects of benzimidazoles in a model of experimental bone metastasis were investigated. Cells were inoculated directly into a single tibia of immunocompromised mice via intraosseous injection. When bone lesions were confirmed to be growing via bioluminescent imaging, mice were randomized and treated with vehicle or with 100 mg/kg albendazole for two weeks. […] There was a significant difference in average luciferase signal between the two groups over the course of treatment (P<0.05).
# At the end of study, the anatomical and radiographic characteristics of the bone lesions were evaluated with X-ray and micro-computerized tomography (CT) imaging.
# Using the metastatic prostate cancer PC-3MLN4 cells that expressed luciferase, the anti-tumor effects of benzimidazoles in a model of experimental bone metastasis were investigated. Cells were inoculated directly into a single tibia of immunocompromised mice via intraosseous injection. When bone lesions were confirmed to be growing via bioluminescent imaging, mice were randomized and treated with vehicle or with 100 mg/kg albendazole for two weeks. […] There was a significant difference in average luciferase signal between the two groups over the course of treatment (P<0.05) (see FIG. 13).
# At the end of study, the anatomical and radiographical characteristics of the bone lesions were evaluated with X-ray and micro-computerized tomography (CT) imaging.
# [1] = system: PC3 human prostate cancer cells; experiment: Cyquant cell viability assay, PC3; assay type: cell-based; settings: read-out: ED50 PC3
# Method: The cytotoxic effects of paclitaxel, fenbendazole, and albendazole were compared in paclitaxel-resistant PC3-TR and DU145-TR prostate cancer cells with their paclitaxel-sensitive counterparts, PC3 and DU145 cells. Cells were treated for 72 hours with vehicle, paclitaxel, fenbendazole or albendazole in various doses. Cell viability was measured using Cyquant assay, and percent control was calculated by dividing the fluorescent reading from drug-treated cells with those from vehicle-treated cells, indicating percentage of cell survival.
# PC3 cells = experiment: Normalized mitotic index, PC3; assay type: cell-based, human; settings: 1 μM
# [2] = system: AT6.1 Dunning rat prostate carcinoma; experiment: Survival in intravenous AT6.1 Dunning rat prostate carcinoma lung metastasis model; assay type: in vivo, nu/nu mice; settings: for average survival time: FIG. 5 (carrier only 20.4 days); for survival: 100 mg/kg, FIG. 6 (control 24.25 days)
# Method: Many anti-tumor drugs are tested only for their ability to prevent primary tumor growth or to prevent the dissemination of metastatic cells. To accomplish this, the drug is usually administered shortly after the primary tumor is established. […] The benzimidazoles described herein were evaluated in an experimental metastases model in the lungs of nude mice following tail-vein injection of Dunning rat AT6.1 prostate carcinoma. […] In order to achieve greater bioavailability, we first solubilized benzimidazoles in DNTC formulation and then diluted with saline prior to injection.
# Inbred male nu/nu mice age 6-8 weeks were obtained from Massachusetts General Hospital (Boston, Mass.). The mice were virus antibody free, age and weight matched for experimental use and fed with a balanced rodent diet ad libitum. AT6.1 Dunning rat prostate cells were maintained as described above. 1×10^4 log-phase cells were injected via tail vein in 0.1 mL Hanks solution. Vehicle or drug treatment was started on day 5 post inoculation and given three times a week (Monday, Wednesday and Friday) via intraperitoneal injection in 0.5 mL volume. Benzimidazole drugs were prepared in the combination carrier [DMSO (12.5%), NMP (37.5%), TWEEN®-80 (25%) and CrEL (25%)] and diluted in saline. Vehicle control was prepared by diluting the combination carrier with saline.
# During the course of treatment, the mice were monitored for toxicity by measuring body weight. […] Animals were euthanized with CO2 and tissues were collected for further analysis. The animals and experiments used in these studies were approved by the institutional animal care committee according to Children's Hospital Boston ARCH guidelines.
# To distinguish differences in survival between these groups, the percent increase in life span (ILS %), defined as the percent increase in the mean time to death of drug-treated animals over the corresponding time to death for vehicle-treated mice, was calculated.
# DU145-TR cells = experiment: Normalized mitotic index, DU145-TR; assay type: cell-based, human; settings: 1 μM
# [3] = system: MES-SA human uterine sarcoma cells; experiment: Cell viability, MES-SA; assay type: cell-based; settings: read-out: ED50 MES-SA
# From the text: Benzimidazoles retain their anti-tumor activity in these paclitaxel-resistant cells, with higher potency when compared to the parental cells (see Table 4). Cells resistant to microtubule-stabilizing drugs such as the taxanes are more susceptible to microtubule-disrupting agents. To confirm this, human uterine sarcoma MES-SA/Dx5 cells, which are cross-resistant to various chemotherapeutic agents, including the microtubule-disrupting agents vincristine and colchicine, were used.
# [4] = system: PC3M human prostate cancer cells; experiment: Cyquant cell viability assay, PC3M; assay type: cell-based; settings: for EC50: Homo sapiens, PC-3M, read-out: ED50 PC3M DMSO
# Method: PC3M and PC3MLN4 cells were treated with vehicle, fenbendazole in DMSO, and fenbendazole in DMSO/NMP/TWEEN®-80/CrEL in varying doses for 72 hours. Cell viability assays using Cyquant reagent (Invitrogen, C7026) were performed as described in the literature. […] cells were seeded in 96 well plates overnight, before treated with either vehicle or benzimidazole solubilized in DMSO alone or in DMSO (12.5%)/NMP ([…])/TWEEN®-80 (25%)/Cr-EL (25%) for 72 hours. Cells were harvested by removing the media, washing once with phosphate buffered saline (PBS) and freezing at −80° C. for overnight. After thawing to room temperature, Cyquant reagent were prepared and added to the wells and the fluorescence intensity were measured with a spectrometer at 485 nm. Percent control was calculated by dividing the reading from drug-treated cells with the reading from vehicle-treated cells.
# ED50 values were calculated from dose-effect analysis performed with Compusyn using data from the Cyquant cell viability assays.
# ED50 values were calculated from dose-effect analysis performed with Compusyn using data from the Cyquant cell viability assays. All benzimidazoles drugs were solubilized in the combination carrier.
# lung metastases = experiment: Lung metastasis model, survival; assay type: in vivo, mice
# Method: In the lung metastasis model, treatment was initiated 10 days after the animals were inoculated with tumor cells. At this time, the lungs were riddled with metastases. Formulations containing a benzimidazole were injected into the peritoneum three times per week. Half of the control mice died by day 27, only 17 days after the animals started receiving treatments. In contrast, half of the mice treated with fenbendazole were still alive on day 37 and one-third were still alive at day 45.
# [5] = 100 mg/kg i.p. three times a week, over vehicle-treated mice
Compound,tumor growth (luciferase signal) compared to vehicle (PC-3MLN4 cells),Ki-67 labeling index of bone lesions (PC-3MLN4 cells; P<0.005),apoptotic index of bone lesions (activated caspase-3 staining) (PC-3MLN4 cells; P<0.005),bone integrity (X-ray and micro-CT imaging) (PC-3MLN4 cells; end of study),EC50 ([1]; 72 h) [µM],Normalized mitotic index (6 hours) PC3 (PC3 cells),average survival time ([2]; 50 mg/kg i.p. three times a week from day 5) [days],average survival time ([2]; 100 mg/kg i.p. three times a week from day 5) [days],"percent increase in life span (ILS %) [2, 5] [%]",survival [2] [days],percent increase in life span (ILS %) ([2]; 250 mg/kg three times a week) [%],Normalized mitotic index (6 hours) DU145-TR (DU145-TR cells),EC50 [3] [µM],EC50 ([4]; 72 h) [µM],EC50 ([1]; 72 hours) [µM],fraction of mice still alive at day 45 (lung metastases; i.p. three times per week from day 10 after inoculation),day on which half of the mice were still alive (lung metastases; i.p. three times per week from day 10 after inoculation (half of control mice died by day 27)) [days],"prolonging the survival times compared with taxol (lung metastases; mouse, in vivo)","EC50 ([4]; solubilized in DMSO alone, 72 hours) [µM]","reduction in ED50, DNTC compared to DMSO, PC-3M ([4]; solubilized in DNTC vs DMSO) [fold]"
"CCCSc1ccc2nc(NC(=O)OC)[nH]c2c1 [Albendazole, albendazole]",reduced tumor growth,reduction,increase,bone integrity was maintained,4.86,1.27,24.4,32,59.7,38.75,64,1.13,1.48,4.84,,,,,,
"COC(=O)Nc1nc2ccc(Sc3ccccc3)cc2[nH]1 [Fenbendazole, fenbendazole]",,,,,,1.26,,,45.3,35.25,,1.18,3.04,,1.57,one-third,37,equivalent to taxol,5.4,~2
